From paper PMC9971260 (Scientific Reports, 2023)
Structures can show the parent of a compound that is named as a salt.

Columns and labels:
COX-2 = settings: cited from earlier work
[1] = mouse, in vivo, 50 mg/kg; cited from earlier work
[2] = design: method as in earlier work; settings: cited from earlier work
COX-1 = settings: read-out: IC50 against COX-1; cited from earlier work
[3] = test system: carrageenan-induced paw edema and hyperalgesia; experiment: pre-treatment of carrageenan-induced paw edema and hyperalgesia; settings: rats
[4] = test system: carrageenan-induced hyperalgesia; experiment: post-treatment of carrageenan-induced hyperalgesia; assay type: in vivo, rat; settings: rats
Procedure: The PWL of untreated rats from the pre-treatment carrageenan study were used as a negative control in this experiment, as well. […] One hind paw was randomly selected to be the observed paw for the entirety of the experiment. Prior to administration of a treatment, the baseline (-23 h) PWL was assessed as described above.
Twenty-three hours after administration of carrageenan, PWL was assessed (23 h) to confirm induction of hyperalgesia, and to establish the PWL prior to treatment. […] PWL was assessed relative to administration of treatment ([…], 48, 72, and 96 h), and two PWL measurements were taken at each time point for each rat.

postoperative pain [5] = experiment: pre- and post-treatment of postoperative pain (incisional model); assay type: in vivo, mouse; settings: mice, pretreatment 5 mg/kg SC 2 h before surgery
Procedure: Twenty-eight (28) mice were randomly assigned to one of four treatment groups: vehicle (5 μL/g, SC) (n = 8), UK4b (20 mg/kg, SC) (n = 7), UK4b (10 mg/kg, SC) (n = 7), and morphine (5 mg/kg, SC) (n = 6). This experiment took place over 14 days. Animals underwent the same acclimation and baseline measurement for PWL and mechanical sensitization threshold as described in the section above on Days -4 to -1. On Day 0, surgery was performed as described above, but each animal received their first treatment two hours prior to surgery (-2 h). Two hours after surgery was complete, PWL was assessed, followed by measurement of mechanical sensitization threshold. Treatment continued once daily from Days 1 through 7. Two hours after drug treatment, PWL and mechanical sensitization threshold are measured. On Day 9, 48 h after the final treatment was administered on Day 7, PWL and mechanical threshold are assessed to follow-up with the animals after treatment ceases. The PWL (seconds) was graphed relative to time (days since surgery). Mechanical sensitization thresholds were graphed as 50% threshold (grams) versus time (days since surgery).

postoperative pain [6] = experiment: post-treatment of postoperative pain (incisional model); assay type: in vivo, mouse; settings: mice, 5 mg/kg SC daily Days 1 to 7
Procedure: Thirty-one (31) mice were randomly assigned to one of four treatment groups: vehicle (5 μL/g, SC) (n = 8), UK4b (20 mg/kg, SC) (n = 7), UK4b (10 mg/kg, SC) (n = 8), and morphine (5 mg/kg, SC) (n = 8). This experiment took place over 14 days. […] Similarly, four days before surgery, the animals began acclimation for one hour per day to the mechanical sensitization (allodynia) apparatus before assessment. Mechanical sensitization was measured with a series of 8 von Frey fiber filaments (0.008 g (1.65); 0.02 g (2.36); 0.07 g (2.83); 0.16 g (3.22); 0.4 g (3.61); 1.0 g (4.08); 2.0 g (4.31); 6.0 g (4.74); Stoelting, Wood Dale, IL) using a modified up-down method. For the algorithm, each filament is applied to the plantar surface of the hind paw for five times. If the mouse retracts that hind paw at least three times, that is considered a positive response to the filament, and the next applied filament would be weaker than the last. If the animal retracts the hind paw fewer than three times, this is a negative response, and the next stronger filament is applied. […] Two hours after surgery was complete, PWL was assessed, followed by measurement of mechanical sensitization threshold. […] On Day 9, 48 h after the final treatment was administered on Day 7, PWL and mechanical sensitization threshold were assessed to follow-up with the animals after treatment ceased. […]

## CS(=O)(=O)c1ccc(C2=C(c3ccccc3)C(=O)OC2)cc1 [rofecoxib]
COX-2
  IC50 against COX-2 (in words): low-nanomolar

## Cc1ccc(-c2cc(C(F)(F)F)nn2-c2ccc(S(N)(=O)=O)cc2)cc1 [celecoxib]
[1]
  stomach tissue damage: caused stomach tissue damage in all mice

## CCCCC[C@H](O)/C=C/[C@H]1[C@H](O)CC(=O)[C@@H]1C/C=C\CCCC(=O)O [PGE2, prostaglandin E2]
[2]
  plasma half-life: 2.5 to 5 min

## NCC1(CC(=O)O)CCCCC1 [gabapentin]
[3]; pretreatment 100 mg/kg IP 1 h or 4 h before carrageenan
  carrageenan-induced hyperalgesia (PWL): similarly relieved the hyperalgesia, but 100 mg/kg gabapentin was not as effective as 10 mg/kg UK4b
[4]; 100 mg/kg IP 23 h after carrageenan
  carrageenan-induced hyperalgesia (PWL), post-treatment: significantly relieved the pain

## CN1CC[C@]23c4c5ccc(O)c4O[C@H]2[C@@H](O)C=C[C@H]3[C@H]1C5 [morphine]
Postoperative pain [5]
  postoperative allodynia (50% mechanical threshold) on Day 0: did not significantly attenuate the postoperative allodynia
  postoperative hyperalgesia (PWL) on Day 0: significantly attenuating the postoperative hyperalgesia
Postoperative pain [6]
  postoperative allodynia (50% mechanical threshold): significantly attenuated
  postoperative hyperalgesia (PWL): significantly attenuated

## COc1ccc2c3c1O[C@H]1C(=O)CC[C@@]4(O)[C@@H](C2)N(C)CC[C@]314 [oxycodone, Oxycodone hydrochloride]
[3]; pretreatment 5 mg/kg IP, at and after 23 h
  carrageenan-induced hyperalgesia (PWL): still significant pain
[3]; pretreatment 5 mg/kg IP, within six hours after carrageenan injection
  carrageenan-induced hyperalgesia (PWL): effectively relieved the pain
[4]; 5 mg/kg IP 23 h after carrageenan
  carrageenan-induced hyperalgesia (PWL), post-treatment: significantly relieved the pain
